target: T1, human kinase Mps-1 (Homo sapiens, UniProt P33981); assay: Mps-1 kinase assay (TR-FRET); assay type: biochemical; conditions: GST-tagged human full length recombinant Mps-1; 10 μM ATP; 1 μM peptide substrate; 60 min at 22° C.
T1 construct: N-terminally GST-tagged human full length recombinant Mps-1 kinase; GST (N); purchased Invitrogen, Karslruhe, Germany PV4071
T1 sequence (P33981 1-857): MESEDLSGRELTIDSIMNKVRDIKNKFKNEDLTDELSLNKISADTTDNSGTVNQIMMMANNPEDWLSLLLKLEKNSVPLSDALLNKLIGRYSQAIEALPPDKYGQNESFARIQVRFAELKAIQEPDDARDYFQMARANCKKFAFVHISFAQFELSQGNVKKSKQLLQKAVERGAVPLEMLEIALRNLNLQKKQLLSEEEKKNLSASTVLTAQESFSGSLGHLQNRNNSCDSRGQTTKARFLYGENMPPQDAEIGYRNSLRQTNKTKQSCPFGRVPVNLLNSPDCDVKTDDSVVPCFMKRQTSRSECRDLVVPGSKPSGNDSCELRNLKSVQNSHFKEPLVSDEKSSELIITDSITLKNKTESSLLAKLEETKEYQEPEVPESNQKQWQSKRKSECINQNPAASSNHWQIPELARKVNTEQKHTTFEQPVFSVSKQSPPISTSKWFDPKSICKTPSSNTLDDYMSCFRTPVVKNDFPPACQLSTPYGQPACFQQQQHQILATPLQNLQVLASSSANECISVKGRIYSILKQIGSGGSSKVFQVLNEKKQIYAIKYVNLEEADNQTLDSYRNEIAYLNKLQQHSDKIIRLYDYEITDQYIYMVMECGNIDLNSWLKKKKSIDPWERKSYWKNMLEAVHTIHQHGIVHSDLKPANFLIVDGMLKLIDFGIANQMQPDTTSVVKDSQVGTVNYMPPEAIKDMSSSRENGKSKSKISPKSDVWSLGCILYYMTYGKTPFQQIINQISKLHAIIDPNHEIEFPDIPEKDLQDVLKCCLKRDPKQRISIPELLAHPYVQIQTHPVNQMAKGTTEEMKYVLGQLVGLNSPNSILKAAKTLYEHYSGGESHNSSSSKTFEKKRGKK
Procedure, shortened: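 N-terminally GST-tagged full-length recombinant human Mps-1, about 1 nM final, phosphorylates a biotinylated peptide. Product detected by TR-FRET from Eu-anti-phospho-Ser/Thr antibody to streptavidin-XLent after 1 h at 22° C.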

Structure (SMILES)	IC50 [nM]
CC(C)CNc1nc(C2=CCSCC2)cn2c(-c3ccc(C(=O)NC4CC4)cc3)cnc12 [Example 1-28, N-cyclopropyl-4-{6-(3,6-dihydro-2H-thiopyran-4-yl)-8-[(2-methylpropyl)amino]imidazo[1,2-a]pyrazin-3-yl}benzamide]	2
Cc1cc(-c2cnc3c(NCCC(F)(F)F)nc(-c4cccn4C)cn23)ccc1C(=O)NC1CC1 [Example 1-75, N-cyclopropyl-2-methyl-4-{6-(1-methyl-1H-pyrrol-2-yl)-8-[(3,3,3-trifluoro-propyl)amino]imidazo [1,2-a]pyrazin-3-yl} benzamide]	3.8
Cn1nccc1CNc1nc(-c2ccn[nH]2)cn2c(-c3ccc(C(=O)NC4CC4)c(F)c3)cnc12 [Example 1-66, N-cyclopropyl-2-fluoro-4-[8-{[(1-methyl-1H-pyrazol-5-yl)methyl]amino}-6-(1H-pyrazol-5-yl)imidazo[1,2-a]pyrazin-3-yl]benzamide]	30.5
CC(C)CNc1nc(-c2ccoc2)cn2c(-c3ccc(C(=O)NC4CC4)c(F)c3)cnc12 [Example 1-50, N-cyclopropyl-2-fluoro-4-{6-(furan-3-yl)-8-[(2-methylpropyl)amino]imidazo[1,2-a]pyrazin-3-yl}benzamide]	9.2
Cc1ccc(-c2cn3c(-c4ccc(C(=O)NC5CC5)cc4)cnc3c(NCC(C)C)n2)s1 [Example 1-15, N-cyclopropyl-4-{8-[(2-methylpropyl)amino]-6-(5-methylthiophen-2-yl)imidazo[1,2-a]pyrazin-3-yl}benzamide]	55.4
Cc1ccc2sc(-c3cn4c(-c5ccc(C(=O)NC6CC6)cc5)cnc4c(NCC(C)C)n3)cc2c1 [Example 1-16, N-cyclopropyl-4-{6-(5-methyl-1-benzothiophen-2-yl)-8-[(2-methylpropyl)amino]imidazo[1,2-a]pyrazin-3-yl}benzamide]	104
CC(C)CNc1nc(-c2ccc(S(=O)(=O)n3cccc3)cc2)cn2c(-c3ccc(C(=O)NC4CC4)cc3)cnc12 [Example 1-23, N-cyclopropyl-4-{8-[(2-methylpropyl)amino]-6-[4-(1H-pyrrol-1-yl-sulonyl)phenyl]imidazo [1,2-a]pyrazin-3-yl} benzamide]	13.1
CC(C)CNc1nc(-c2ccncc2)cn2c(-c3ccc(C(=O)NC4CC4)cc3)cnc12 [Example 1-1, N-cyclopropyl-4-{8-[(2-methylpropyl)amino]-6-(pyridin-4-yl)imidazo[1,2-a]pyrazin-3-yl}benzamide]	1.8
NCCCCNc1nc(-c2cccc(CC(N)=O)c2)cn2c(-c3ccc(C(=O)NC4CC4)cc3)cnc12 [Example 1-95, 4-{8-[(4-Aminobutyl)amino]-6-[3-(2-amino-2-oxoethyl)phenyl]imidazo[1,2-a]pyrazin-3-yl}-N-cyclo-propylbenzamide]	19.2
O=C(NC1CC1)c1ccc(-c2cnc3c(NCCC(F)(F)F)nc(-c4ccoc4)cn23)cc1F [Example 1-54, N-cyclopropyl-2-fluoro-4-{6-(furan-3-yl)-8-[(3,3,3-trifluoropropyl)amino]imidazo[1,2-a]pyrazin-3-yl}benzamide]	6.6
COc1cc(C(=O)NC2CC2)ccc1-c1cnc2c(NCCCN)nc(-c3ccnn3C)cn12 [Example 1-102, 4-{8-[(3-Aminopropyl)amino]-6-(1-methyl-1H-pyrazol-5-yl)imidazo[1,2-a]pyrazin-3-yl}-N-cyclopropyl-3-methoxybenzamide]	531
CC(C)CNc1nc(-c2csc3ccccc23)cn2c(-c3ccc(C(=O)NC4CC4)cc3)cnc12 [Example 1-14, 4-{6-(1-benzothiophen-3-yl)-8-[(2-methylpropyl)amino]imidazo[1,2-a]pyrazin-3-yl}-N-cyclo-propylbenzamide]	6.9
CC(C)CNc1nc(-c2cncc(F)c2)cn2c(-c3ccc(C(=O)NC4CC4)cc3)cnc12 [Example 1-21, N-cyclopropyl-4-{6-(5-fluoropyridin-3-yl)-8-[(2-methylpropyl)amino]imidazo[1,2-a]pyrazin-3-yl}benzamide]	19.4
CC(=O)NCc1ccc(-c2cn3c(-c4ccc(C(=O)NC5CC5)cc4)cnc3c(NCC(C)C)n2)cc1 [Example 1-18, 4-(6-{4-[(acetylamino)methyl]phenyl}-8-[(2-methylpropyl)amino]imidazo[1,2-a]pyrazin-3-yl)-N-cyclopropyl-benzamide]	1.6
COc1ncc(-c2cn3c(-c4ccc(C(=O)NC5CC5)cc4)cnc3c(NCC(C)C)n2)cn1 [Example 1-3, N-cyclopropyl-4-{6-(2-methoxypyrimidin-5-yl)-8-[(2-methylpropyl)amino]imidazo[1,2-a]pyrazin-3-yl}benzamide]	12.7
CC(C)CNc1nc(-c2cncnc2)cn2c(-c3ccc(C(=O)NC4CC4)cc3)cnc12 [Example 1-17, N-cyclopropyl-4-{8-[(2-methylpropyl)amino]-6-(pyrimidin-5-yl)imidazo [1,2-a]pyrazin-3-yl} benzamide]	16.5

Results, then the compound that gave them:

IC50 [nM]	Structure (SMILES)
9.3	Cc1cc(-c2cnc3c(NCC(C)C)nc(C4=CCOCC4)cn23)ccc1C(=O)NC1CC1 [Example 6-5, N-cyclopropyl-4-{6-(3,6-dihydro-2H-pyran-4-y1)-8-[(2-methylpropyl)amino]imidazo[1,2-a]pyrazin-3-yl}-2-methylbenzamide]
11.7	CC(C)CNc1nc(C(=O)NCCN2CCCCC2)cn2c(-c3ccc(C(=O)NC4CC4)cc3)cnc12 [Example 8-2, 3-[4-(cyclopropylcarbamoyl)phenyl]-8-[(2-methylpropyl)amino]-N-[2-(piperidin-1-yl)ethyl] imidazo[1,2-a]pyrazine 6-carboxamide]
3.5	O=C(NC1CC1)c1ccc(-c2cnc3c(NCC4CCCCO4)nc(-c4ccncc4)cn23)cc1 (stereo not shown) [Example 3-36, N-cyclopropyl-4-{6-(pyridin-4-yl)-8-[(tetrahydro-2H-pyran-2-ylmethyl)amino]imidazo[1,2-a]pyrazin-3-yl} benzamide]
2.3	O=C(NC1CC1)c1ccc(-c2cnc3c(NCc4ccccc4)nc(-c4ccncc4)cn23)cc1 [Example 3-12, 4-[8-(benzylamino)-6-(pyridin-4-yl)imidazo [1,2-a]pyrazin-3-yl]-N-cyclopropylbenzamide]
1.5	CC(C)CNc1nc(C2CCOCC2)cn2c(-c3ccc(C(=O)NC4CC4)cc3)cnc12 [Example 7-4, N-cyclopropyl-4-{8-[(2-methylpropyl)amino]-6-(tetrahydro-2H-pyran-4-yl)imidazo[1,2-a]pyrazin-3-yl}benzamide]
294	Cc1cc(-c2cnc3c(NCC4CN(C)CCO4)nc(C4=CCOCC4)cn23)ccc1C(=O)NC1CC1 (stereo not shown) [Example 6-7, N-cyclopropyl-4-[6-(3,6-dihydro-2H-pyran-4-yl)-8-{[(4-methyl-morpholin-2-yl)methyl]amino}imidazo[1,2-a]pyrazin-3-y1]-2-methylbenzamide]
6.5	CC(C)CNc1nc(N2CCCCS2(=O)=O)cn2c(-c3ccc(C(=O)NC4CC4)cc3)cnc12 [Example 12-1, N-cyclopropyl-4-{6-(1,1-dioxido-1,2-thiazinan-2-yl)-8-[(2-methylpropyl)amino]imidazo[1,2-a]pyrazin-3-yl}benzamide]
5.4	O=C(NC1CC1)c1ccc(-c2cnc3c(NCC(F)F)nc(-c4ccncc4)cn23)cc1 [Example 3-26, N-cyclopropyl-4-{8-[(2,2-difluoroethyl)amino]-6-(pyridin-4-yl)imidazo [1,2-a]pyrazin-3-yl} benzamide]
2.7	O=C(NC1CC1)c1ccc(-c2cnc3c(NCc4c(F)cccc4F)nc(-c4ccncc4)cn23)cc1 [Example 3-15, N-cyclopropyl-4-{8-[(2,6-difluorobenzyl)amino]-6-(pyridin-4-yl)imidazo [1,2-a]pyrazin-3-yl} benzamide]
199	Cc1cc(-c2cnc3c(NCC4CCC(N(C)C)CC4)nc(C4=CCOCC4)cn23)ccc1C(=O)NC1CC1 (stereo not shown) [Example 6-18, N-cyclopropyl-4-[6-(3,6-dihydro-2H-pyran-4-yl)-8-({[4-(dimethylamino)cyclohexyl]methyl}amino)imidazo[1,2-a]pyrazin-3-yl]-2-methylbenzamide]
1.1	O=C(NC1CC1)c1ccc(-c2cnc3c(NCCC(F)(F)F)nc(-c4ccncc4)cn23)cc1 [Example 3-22, N-cyclopropyl-4-{6-(pyridin-4-yl)-8-[(3,3,3-trifluoropropyl)amino]imidazo[1,2-a]pyrazin-3-yl}benzamide]
2	O=C(NC1CC1)c1ccc(-c2cnc3c(NCc4cccnc4)nc(-c4ccncc4)cn23)cc1 [Example 3-18, N-cyclopropyl-4-{6-(pyridin-4-yl)-8-[(pyridin-3-ylmethyl)amino]imidazo [1,2-a]pyrazin-3-yl} benzamide]

From US20140135319A1, “6-SUBSTITUTED IMIDAZOPYRAZINES FOR USE AS MPS-1 AND TKK INHIBITORS IN THE TREATMENT OF HYPERPROLIFERATIVE DISORDERS” (BAYER INTELLECTUAL PROPERTY GMBH, priority 2010, published 2014)
